Assay results taken from patent publication US20140179664A1, “Heterocyclyl Pyrimidine Analogues As JAK Inhibitors” (Cellzome Limited, priority 2011, published 2014).

Target: T1, JAK3 (Homo sapiens, UniProt P52333)
T1 construct: endogenous in cells; host or cells: Molt4 (ATCC CRL-1582) and Ramos (ATCC CRL-1596), mixed lysate 1:2
T1 sequence (P52333 1-1124): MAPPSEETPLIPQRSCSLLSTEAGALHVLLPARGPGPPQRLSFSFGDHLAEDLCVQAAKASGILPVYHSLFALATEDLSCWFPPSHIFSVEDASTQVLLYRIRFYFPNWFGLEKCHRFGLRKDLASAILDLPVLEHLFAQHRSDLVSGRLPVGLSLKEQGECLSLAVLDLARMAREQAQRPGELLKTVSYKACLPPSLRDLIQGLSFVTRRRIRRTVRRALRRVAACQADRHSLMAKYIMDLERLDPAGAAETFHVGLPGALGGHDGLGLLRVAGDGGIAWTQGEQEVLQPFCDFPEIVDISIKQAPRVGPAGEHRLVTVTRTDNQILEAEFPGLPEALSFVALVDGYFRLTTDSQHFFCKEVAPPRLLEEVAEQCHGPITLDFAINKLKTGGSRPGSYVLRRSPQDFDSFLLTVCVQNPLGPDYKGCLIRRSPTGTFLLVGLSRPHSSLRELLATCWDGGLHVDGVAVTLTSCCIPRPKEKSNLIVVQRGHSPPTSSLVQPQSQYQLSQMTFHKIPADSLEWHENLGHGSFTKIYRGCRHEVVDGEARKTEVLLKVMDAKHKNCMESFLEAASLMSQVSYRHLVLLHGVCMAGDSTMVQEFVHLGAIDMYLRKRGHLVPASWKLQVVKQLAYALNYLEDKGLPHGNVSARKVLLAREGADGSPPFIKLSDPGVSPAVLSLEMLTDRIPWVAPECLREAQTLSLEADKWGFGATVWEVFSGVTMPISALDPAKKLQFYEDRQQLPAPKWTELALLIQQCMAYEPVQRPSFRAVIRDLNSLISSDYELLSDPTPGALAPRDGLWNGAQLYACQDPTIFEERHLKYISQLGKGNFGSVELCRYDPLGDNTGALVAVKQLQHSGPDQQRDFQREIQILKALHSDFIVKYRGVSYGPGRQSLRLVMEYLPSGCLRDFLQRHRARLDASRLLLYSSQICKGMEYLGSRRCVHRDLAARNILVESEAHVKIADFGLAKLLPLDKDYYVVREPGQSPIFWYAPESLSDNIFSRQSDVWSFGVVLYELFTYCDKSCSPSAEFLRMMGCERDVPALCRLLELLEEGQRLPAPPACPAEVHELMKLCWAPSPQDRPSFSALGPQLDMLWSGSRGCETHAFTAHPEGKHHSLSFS
Experiment: Kinobeads assay, JAK3
Type: binding
Conditions: mixed Molt4/Ramos lysate, read-out: Inhibition values (IC50) JAK3
Method: The compounds of the present invention as described in the previous examples were tested in a Kinobeads™ assay as described for ZAP-70 (WO-A 2007/137867). Briefly, test compounds (at various concentrations) and the affinity matrix with the immobilized aminopyrido-pyrimidine ligand 24 were added to cell lysate aliquots and allowed to bind to the proteins in the lysate sample. After the incubation time the beads with captured proteins were separated from the lysate. Bound proteins were then eluted and the presence of JAK1, JAK2, JAK3 and TYK2 was detected and quantified using specific antibodies in a dot blot procedure and the Odyssey infrared detection system. Dose response curves for individual kinases were generated and IC50 values calculated. Kinobeads™ assays for ZAP-70 (WO-A 2007/137867) and for kinase selectivity profiling (WO-A 2006/134056) have been previously described.
The affinity matrix was washed two times with 15 mL of lx DP buffer containing 0.2% NP40 (IGEPAL® CA-630, Sigma, #13021) and then resuspended in 1×DP buffer containing 0.2% NP40 (3% beads slurry).
5×DP buffer: 250 mM Tris-HCl pH 7.4, 25% Glycerol, 7.5 mM MgCl2, 750 mM NaCl, 5 mM Na3VO4; filter the 5×DP buffer through a 0.22 μm filter and store in aliquots at −80° C. The 5×DP buffer is diluted with H2O to 1×DP buffer containing 1 mM DTT and 25 mM NaF.
Stock solutions of test compounds were prepared in DMSO. In a 96 well plate […] solution of diluted test compounds at 5 mM in DMSO were prepared. Starting with this solution a 1:3 dilution series (9 steps) was prepared. For control experiments (no test compound) a buffer containing 2% DMSO was used.
Molt4 cells (ATCC catalogue number CRL-1582) and Ramos cells (ATCC catalogue number CRL-1596) were grown in 1 L Spinner flasks (Integra Biosciences, #182101) in suspension in RPMI 1640 medium (Invitrogen, #21875-034) supplemented with 10% Fetal Bovine Serum (Invitrogen) at a density between 0.15×10^6 and 1.2×10^6 cells/mL. Cells were harvested by centrifugation, washed once with 1×PBS buffer (Invitrogen, #14190-094) and cell pellets were frozen in liquid nitrogen and subsequently stored at −80° C. Cells were homogenized in a Potter S homogenizer in lysis buffer: 50 mM Tris-HCl, 0.8% NP40, 5% glycerol, 150 mM NaCl, 1.5 mM MgCl2, 25 mM NaF, 1 mM sodium vanadate, 1 mM DTT, pH 7.5. One complete EDTA-free tablet (protease inhibitor cocktail, Roche Diagnostics, 1873580) per 25 mL buffer was added. The material was dounced 10 times using a mechanized POTTER S, transferred to 50 mL falcon tubes, incubated for 30 minutes on ice and spun down for 10 minutes at 20,000 g at 4° C. (10,000 rpm in Sorvall SLA600, precooled). The supernatant was transferred to an ultracentrifuge (UZ)-polycarbonate tube (Beckmann, 355654) and spun for 1 hour at 100.000 g at 4° C. (33.500 rpm in Ti50.2, precooled). The supernatant was transferred again to a fresh 50 mL falcon tube, the protein concentration was determined by a Bradford assay (BioRad) and samples containing 50 mg of protein per aliquot were prepared. The samples were immediately used for experiments or frozen in liquid nitrogen and stored frozen at −80° C.
Cell lysate (approximately 50 mg protein per plate) was thawed in a water bath at room temperature and then stored on ice. To the thawed cell lysate 1×DP 0.8% NP40 buffer containing protease inhibitors (1 tablet for 25 mL buffer; EDTA-free protease inhibitor cocktail; Roche Diagnostics 1873580) was added in order to reach a final protein concentration of 10 mg/mL total protein. The diluted cell lysate was stored on ice. Mixed Molt4/Ramos lysate was prepared by combining one volume of Molt4 lysate and two volumes of Ramos lysate (ratio 1:2).
To a 96 well filter plate (Multiscreen HTS, BV Filter Plates, Millipore #MSBVN1250) were added per well: 100 μL affinity matrix (3% beads slurry), […], of compound solution, and 50 μL of diluted lysate. […]

| SMILES | IC50 [nM] |
| --- | --- |
| Cc1cnc(Nc2cnn(C)c2)nc1N[C@H](CO)c1cc(F)cc(F)c1 [Compound 164] | 100 to 1000 |
| Cc1cnc(Nc2cnn(C)c2)nc1N[C@H](CO)c1cccc(-c2cnn(C)c2)c1 [Compound 149] | 100 to 1000 |
| CNC(=O)Cn1cc(Nc2ncc(F)c(N[C@H](CO)c3cc(F)cc(-c4cnn(C)c4)c3)n2)cn1 [Compound 157] | 100 to 1000 |
| CNC(=O)Cn1cc(Nc2ncc(F)c(N[C@H](CO)c3cccc(-c4cnn(C)c4)c3)n2)cn1 [Compound 155] | 100 to 1000 |
| O=C(NCC(F)(F)F)C(Nc1nc(Nc2cnn(CCO)c2)ncc1Cl)c1ccccc1F (stereo not drawn) [Compound 128] | 100 to 1000 |
| Cn1cc(Nc2ncc(Cl)c(N[C@H](CO)c3cc(F)cc(-c4cnn(C)c4)c3)n2)cn1 [Compound 137] | 100 to 1000 |
| Cn1cc(Nc2ncc(C(F)(F)F)c(NC(C)(CO)c3ccccc3)n2)cn1 (stereo not drawn) [Compound 8] | 100 to 1000 |
| Cn1cc(-c2cc(F)cc([C@@H](CO)Nc3nc(Nc4cnn(CCO)c4)ncc3F)c2)cn1 [Compound 153] | 100 to 1000 |
| NC(=O)Cn1cc(Nc2ncc(Cl)c(NC(CO)c3cc(F)ccc3F)n2)cn1 (stereo not drawn) [Compound 132] | < 100 |
| NC(=O)Cn1cc(Nc2ncc(F)c(N[C@H](CO)c3ccccc3)n2)cn1 [Compound 108] | 100 to 1000 |
| Cc1cnc(Nc2cnn(CC(=O)N(C)C)c2)nc1N[C@H](CO)c1ccccc1 [Compound 134] | < 100 |
| Cc1cnc(Nc2cnn(C)c2)nc1N[C@H](CO)c1cc(F)ccc1F [Compound 163] | < 100 |
| CC(C)OCCn1cc(Nc2ncc(Cl)c(N[C@H](CO)c3ccccc3)n2)cn1 [Compound 114] | < 100 |
| COc1ccccc1[C@@H](CO)Nc1nc(Nc2cnn(CC(=O)N3CCOCC3)c2)ncc1Cl [Compound 101] | < 100 |
| Cn1cc(Nc2ncc(F)c(N[C@H](CO)c3cc(F)ccc3F)n2)cn1 [Compound 146] | < 100 |
| CNC(=O)Cn1cc(Nc2ncc(F)c(N[C@H](CO)c3cc(F)cc(F)c3)n2)cn1 [Compound 161] | < 100 |
| Cn1cc(Nc2ncc(Cl)c(N[C@H](CO)c3cccc(N4CCOCC4=O)c3F)n2)cn1 [Compound 162] | < 100 |
| CCn1cc(Nc2ncc(Cl)c(N[C@H](CO)c3ccccc3F)n2)cn1 [Compound 109] | < 100 |
| COc1cccc([C@@H](CO)Nc2nc(Nc3cnn(C(C)C)c3)ncc2Cl)c1 [Compound 106] | 100 to 1000 |

Next, values leading:

| IC50 [nM] | SMILES |
| --- | --- |
| < 100 | CCn1cc(Nc2ncc(Cl)c(N[C@H](CO)c3ccccc3OC)n2)cn1 [Compound 95] |
| < 100 | COc1cccc([C@@H](CO)Nc2nc(Nc3cnn(CC(=O)N4CCOCC4)c3)ncc2Cl)c1 [Compound 102] |
| < 100 | OCCn1cc(Nc2ncc(Cl)c(N[C@H](CO)c3cc(F)cc(F)c3)n2)cn1 [Compound 143] |
| < 100 | NC(=O)Cn1cc(Nc2ncc(F)c(N[C@H](CO)c3cc(F)cc(F)c3)n2)cn1 [Compound 160] |
| < 100 | NCCCn1cc(Nc2ncc(Cl)c(N[C@H](CO)c3ccccc3)n2)cn1 [Compound 113] |
| < 100 | CNC(=O)Cn1cc(Nc2ncc(Cl)c(NC(CO)c3ccccc3Cl)n2)cn1 (stereo not drawn) [Compound 119] |
| < 100 | COc1ccccc1[C@@H](CO)Nc1nc(Nc2cnn(C(C)C)c2)ncc1Cl [Compound 105] |
| < 100 | Cn1cc(Nc2ncc(Cl)c(N[C@H](CO)c3cc(F)cc(F)c3)n2)cn1 [Compound 142] |
| < 100 | CNC(=O)Cn1cc(Nc2ncc(Cl)c(N[C@H](CO)c3cc(F)cc(F)c3)n2)cn1 [Compound 145] |
| < 100 | CNC(=O)Cn1cc(Nc2ncc(Cl)c(NC(CO)c3cc(F)ccc3F)n2)cn1 (stereo not drawn) [Compound 130] |
| < 100 | NC(=O)Cn1cc(Nc2ncc(Cl)c(N[C@H](CO)c3cc(F)ccc3F)n2)cn1 [Compound 140] |
| < 100 | Cn1cc(Nc2ncc(Cl)c(NC(CO)c3ccccc3Cl)n2)cn1 (stereo not drawn) [Compound 117] |
| < 100 | CNC(=O)Cn1cc(Nc2ncc(Cl)c(N[C@H](CO)c3ccccc3F)n2)cn1 [Compound 100] |
| < 100 | CNC(=O)Cn1cc(Nc2ncc(Cl)c(N[C@H](CO)c3cccc(OC)c3)n2)cn1 [Compound 99] |
| < 100 | Cn1cc(Nc2ncc(Cl)c(N[C@H](CO)c3cccc(N4CCOCC4=O)c3)n2)cn1 [Compound 138] |
| < 100 | OC[C@@H](Nc1nc(Nc2cnn(CC(F)F)c2)ncc1Cl)c1ccccc1F [Compound 165] |
| < 100 | C[C@@H](CO)NC(=O)Cn1cc(Nc2ncc(Cl)c(N[C@H](CO)c3ccccc3F)n2)cn1 [Compound 116] |
| < 100 | OCCn1cc(Nc2ncc(Cl)c(NC(CO)c3cc(F)cc(F)c3)n2)cn1 (stereo not drawn) [Compound 122] |
| < 100 | CC(C)n1cc(Nc2ncc(Cl)c(N[C@H](CO)c3ccccc3F)n2)cn1 [Compound 110] |
| < 100 | CNC(=O)Cn1cc(Nc2ncc(Cl)c(NC(CO)c3cc(F)cc(F)c3)n2)cn1 (stereo not drawn) [Compound 123] |
| < 100 | OCCn1cc(Nc2ncc(Cl)c(NC(CO)c3ccccc3Cl)n2)cn1 (stereo not drawn) [Compound 120] |
| < 100 | Cn1cc(Nc2ncc(Cl)c(NC(CO)c3cccc(N4CCOCC4=O)c3)n2)cn1 (stereo not drawn) [Compound 124] |
| < 100 | CNC(=O)Cn1cc(Nc2ncc(Cl)c(N[C@H](CO)c3cc(F)ccc3F)n2)cn1 [Compound 141] |
| < 100 | Cn1cc(Nc2ncc(F)c(N[C@H](CO)c3cc(F)cc(F)c3)n2)cn1 [Compound 158] |
| < 100 | NC(=O)Cn1cc(Nc2ncc(Cl)c(N[C@H](CO)c3cc(F)cc(F)c3)n2)cn1 [Compound 144] |
| < 100 | OCCn1cc(Nc2ncc(F)c(N[C@H](CO)c3cc(F)cc(F)c3)n2)cn1 [Compound 159] |
